Results taken from US8071355B2, “Polyhydroxyalkanoate production by coenzyme A-dependent aldehyde dehydrogenase pathways” (Metabolix, Inc., priority 2002, dated 2011).

Test system: E. coli strain MBX1335
Conditions: for average OD-600 reached: E. coli MBX1335, 10 g/L in medium, cultures allowed to continue to grow; for inhibition of growth rate: E. coli MBX1335, minimal glucose medium, 2, 5 and 10 g/L, triplicate, FIG. 2
Description: MBX1335 was grown overnight in LB medium supplemented with 25 μg/mL chloramphenicol. […] The base medium in these 3-mL cultures contained, per liter: 5 g glucose; 1 mmol MgSO4; 10 mg thiamine; 25.5 mmol Na2HPO4; 33.3 mmol K2HPO4; 27.2 mmol KH2PO4; 2.78 mg FeSO4.7H2O; 1.98 mg MnCl2.4H2O; 2.81 mg CoSO4.7H2O; 0.17 mg CuCl2.2H2O; 1.67 mg CaCl2.2H2O; 0.29 mg ZnSO4.7H2O; 0.1 g casein hydrolysate; and 25 μg chloramphenicol.

| Compound | average OD-600 reached | inhibition of growth rate |
| --- | --- | --- |
| 1-propanol | 3.8 | propionate inhibits the rate of growth substantially more than 1-propanol |
| CCC(=O)[O-].[Na+] [propionate, sodium propionate] | 5.0 | propionate inhibits the rate of growth substantially more than 1-propanol |
